This note sets out measurements from ChEMBL document CHEMBL1143399, “A small-molecule nitroimidazopyran drug candidate for the treatment of tuberculosis” (Nature, 2000).

Converted amounts (≈) assume the structure as drawn.

Type in all cases: functional
In assay [1] the test system is Mycobacterium tuberculosis. As to the kind of experiment: Antimycobacterial activity against multidrug-resistant Mycobacterium tuberculosis TN576.
Assay [2] relates to Mycobacterium tuberculosis. The experiment in a line: Antimycobacterial activity against multidrug-resistant Mycobacterium tuberculosis TN702.
In assay [3] the test system is Mycobacterium tuberculosis. The experiment in a line: Antimycobacterial activity against multidrug-resistant Mycobacterium tuberculosis TN715.
Assay [4] concerns Mycobacterium tuberculosis. The experiment in a line: Antimycobacterial activity against multidrug-resistant Mycobacterium tuberculosis TN768.
Assay [5] concerns Mycobacterium tuberculosis. As to the kind of experiment: Antimycobacterial activity against multidrug-resistant Mycobacterium tuberculosis TN772.
Assay [6] has as its system Mycobacterium tuberculosis. As to the kind of experiment: Antimycobacterial activity against multidrug-resistant Mycobacterium tuberculosis TN1195.
Assay [7] deals with Mycobacterium tuberculosis. The experiment in a line: Antimycobacterial activity against multidrug-resistant Mycobacterium tuberculosis TN1314.
The test system of assay [8] is Mycobacterium tuberculosis. As to the kind of experiment: Antimycobacterial activity against multidrug-resistant Mycobacterium tuberculosis TN1618.
The test system of assay [9] is Mycobacterium tuberculosis. The experiment in a line: Antimycobacterial activity against multidrug-resistant Mycobacterium tuberculosis TN1811.
Assay [10] relates to Mycobacterium tuberculosis. As to the kind of experiment: Antimycobacterial activity against multidrug-resistant Mycobacterium tuberculosis TN2557.
Assay [11] relates to Mycobacterium tuberculosis. The experiment in a line: Antimycobacterial activity against mono-rifampin-resistant Mycobacterium tuberculosis TN675.
Assay [12] relates to Mycobacterium tuberculosis. The experiment in a line: Antimycobacterial activity against mono-rifampin-resistant Mycobacterium tuberculosis TN994.
The subject of assay [13] is Mycobacterium tuberculosis. The experiment in a line: Antimycobacterial activity against multidrug-resistant Mycobacterium tuberculosis TN565.

With `O=[N+]([O-])c1cn2c(n1)OC[C@@H](OCc1ccc(OC(F)(F)F)cc1)C2` [PRETOMANID], the minimum inhibitory concentration (MIC) is 0.06 mg/L (≈ 0.167 µM) in assay [1]; 0.25 mg/L (≈ 0.696 µM) in [2]; 0.06 mg/L (≈ 0.167 µM) in [3]; 0.06 mg/L (≈ 0.167 µM) in [4]; 0.03 mg/L (≈ 0.0835 µM) in assay [5]; 0.25 mg/L (≈ 0.696 µM) in [6]. Further, the MIC is 0.03 mg/L (≈ 0.0835 µM) in assay [7]; 0.06 mg/L (≈ 0.167 µM) in assay [8]; 0.03 mg/L (≈ 0.0835 µM) in assay [9]; 0.13 mg/L (≈ 0.362 µM) in assay [10]; 0.015 mg/L (≈ 0.0418 µM) in assay [11]; 0.03 mg/L (≈ 0.0835 µM) in assay [12]. The MIC in assay [13] came out at 0.06 mg/L (≈ 0.167 µM).
`NNC(=O)c1ccncc1` [ISONIAZID]: the MIC in assay [11] and in assay [12] was 0.03 mg/L (≈ 0.219 µM) in each case.

One may read the MIC as the lowest concentration that inhibits growth of the organism. Low values mean inhibition by little substance, high ones a need for much substance.
